The structures appear in SMILES notation. Bounds are passed on as bounds.

For this assay, the target named is Bek (Homo sapiens, UniProt P21802). The experiment in a line: Inhibitory activity against Bek-autophosphorylation using ELISA method in OCUM-2MD3 cells. In kind it is cell-based. The settings on record: 1 hr with compound, read-out: IC50 (concentration necessary for inhibiting 50% of Bek-phosphorylation). In a few lines: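 Sandwich ELISA (anti-phosphotyrosine capture, anti-Bek detection, peroxidase, 450 nm) measured Bek autophosphorylation in OCUM-2MD3 lysates after 1 hr compound treatment at 37° C in 0.1% serum medium. IC50 derived by scaling between no-drug (100%) and excess positive control at 1000 nM (0%).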
Chain of Bek (P21802 431-767 limits assumed): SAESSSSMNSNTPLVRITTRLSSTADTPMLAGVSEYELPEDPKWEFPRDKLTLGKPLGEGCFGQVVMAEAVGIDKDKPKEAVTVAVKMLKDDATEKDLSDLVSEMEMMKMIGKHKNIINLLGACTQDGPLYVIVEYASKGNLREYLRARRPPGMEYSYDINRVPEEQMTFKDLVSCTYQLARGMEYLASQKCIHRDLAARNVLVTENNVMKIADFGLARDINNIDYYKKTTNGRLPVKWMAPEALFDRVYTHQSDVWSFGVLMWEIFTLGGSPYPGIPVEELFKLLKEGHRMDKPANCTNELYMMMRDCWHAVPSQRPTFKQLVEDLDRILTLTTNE
On to `COc1cc2c(Oc3ccc(Nc4ccc(C(C)(C)C)cc4)cc3)ccnc2cc1OCCN(CCO)C(C)C` [Compound 367, 2-[(2-{4-[4-(4-Tert-butyl-phenylamino)-phenoxy]-6-methoxy-quinolin-7-yloxy}-ethyl)-isopropyl-amino]-ethanol], for which the IC50 was 0.468 µM.
With `COc1cc2c(Oc3ccc(Nc4ccc(C(C)(C)C)cc4)cc3)ncnc2cc1OCCN1CCOCC1` [Compound 78, (4-Tert-butylphenyl)-{4-[6-methoxy-7-(2-morpholin-4-ylethoxy)quinazolin-4-yloxy]phenyl}amine] the figure was 0.274 µM; with `COc1cc2c(Oc3ccc(NC(=O)NCCC(C)(C)C)c(Cl)c3)ccnc2cc1OCC1CCN(C)CC1` [Compound 169, 1-{2-Chloro-4-[6-methoxy-7-(1-methyl-piperidin-4-ylmethoxy)-quinolin-4-yloxy]-phenyl}-3-(3,3-dimethyl-butyl)-urea], 0.0252 µM.
Take `COc1cc2c(Oc3ccc(NC(=O)NCCC(C)(C)C)cc3Cl)ccnc2cc1OCCCN1CCC(CO)CC1` [Compound 339, 1-(3-Chloro-4-{7-[3-(4-hydroxymethyl-piperidin-1-yl)-propoxy]-6-methoxy-quinolin-4-yloxy}-phenyl)-3-(3,3-dimethyl-butyl)-urea]: the IC50 was 0.0164 µM.
On to `COc1cc2nccc(Oc3ccc(NC(=O)NCCC(C)(C)C)cc3)c2cc1OCCCN(C)C` [Compound 224, 1-{4-[6-(3-Dimethylamino-propoxy)-7-methoxy-quinolin-4-yloxy]-phenyl}-3-(3,3-dimethyl-butyl)-urea], for which the IC50 came out at 0.0704 µM.
With `C=C[C@H]1CN2CCC1C[C@@H]2COc1cc2nccc(Oc3ccc(Nc4ccc(C(C)(C)C)cc4)cc3)c2cc1OC` (stereo in doubt) [Compound 57, (4-Tert-butylphenyl)-{4-[6-methoxy-7-(5-vinyl-1-azabicyclo-[2.2.2]oct-2-ylmethoxy)quinolin-4-yloxy]phenyl}amine] the figure was 3.83 µM.
With `COc1cc2c(Oc3ccc(NC(=O)NCCC(C)(C)C)c(F)c3)ccnc2cc1OCCCCl` [Compound 204, 1-{4-[7-(3-Chloro-propoxy)-6-methoxy-quinolin-4-yloxy]-2-fluoro-phenyl}-3-(3,3-dimethyl-butyl)-urea], the IC50 came to 0.234 µM.
On to `COc1cc2c(Oc3ccc(NC(=O)NCCC(C)(C)C)cc3F)ccnc2cc1OCCN1CCC(CCO)CC1` [Compound 297, 1-(3,3-Dimethyl-butyl)-3-[3-fluoro-4-(7-{2-[4-(2-hydroxy-ethyl)-piperidin-1-yl]-ethoxy}-6-methoxy-quinolin-4-yloxy)-phenyl]-urea], for which the IC50 was determined as 0.0424 µM.
Then `COc1cc2c(Oc3ccc(Nc4ccc(C(C)(C)C)cc4)cc3)ccnc2cc1OCCN1CCC(N2CCCCC2)CC1` [Compound 242, {4-[7-(2-[1,4′]Bipiperidineyl-1′-yl-ethoxy)-6-methoxy-quinolin-4-yloxy]-phenyl}-(4-tert-butyl-phenyl)-amine], with 0.401 µM; and `COc1cc2c(Oc3ccc(Nc4ccc(C(C)(C)C)cc4)cc3)ccnc2cc1OCC(O)CN1CCCCC1` (stereo not shown) [Compound 62, 1-{4-[4-(4-Tert-butyl-phenylamino)phenoxy]-6-methoxyquinolin-7-yloxy}-3-piperidin-1-ylpropan-2-ol], with 0.249 µM; and `COc1cc2c(Oc3ccc(NC(=O)NCCC(C)(C)C)c(F)c3)ccnc2cc1OCCCN1CCC(O)CC1` [Compound 302, 1-(3,3-Dimethyl-butyl)-3-(2-fluoro-4-{7-[3-(4-hydroxy-piperidin-1-yl)-propoxy]-6-methoxy-quinolin-4-yloxy}-phenyl)-urea], with 0.0266 µM.
As for `COc1cc2nccc(Oc3ccc(Nc4ccc(-c5ccccc5)cc4)cc3)c2cc1OC` [Compound 3, Biphenyl-4-yl-[4-(6,7-dimethoxyquinolin-4-yloxy)phenyl]amine], the IC50 came to 4.58 µM.
With `COc1cc2nccc(Oc3ccc(Nc4ccc(C(C)(C)C)cc4)cc3)c2cc1OCCN(CCO)CCO` [Compound 358, 2-[(2-{4-[4-(4-Tert-butyl-phenylamino)-phenoxy]-7-methoxy-quinolin-6-yloxy}-ethyl)-(2-hydroxy-ethyl)-amino]-ethanol] the figure was 0.0517 µM; with `COc1cc2nccc(Oc3ccc(C(OC(C)=O)c4ccc(C(C)(C)C)cc4)cc3)c2cc1OC` (stereo not shown) [Compound 31, (4-Tert-butylphenyl)-[4-(6,7-dimethoxyquinolin-4-yloxy)phenyl]methyl acetate], 1.01 µM; with `COc1cc2nccc(Oc3ccc(NC(=O)NCCC(C)(C)C)cc3)c2cc1OCCCN1CCOCC1` [Compound 223, 1-(3,3-Dimethyl-butyl)-3-{4-[7-methoxy-6-(3-morpholin-4-yl-propoxy)-quinolin-4-yloxy]-phenyl}-urea], 0.0498 µM.
With `COc1cc2c(Oc3ccc(Nc4ccc(C(C)(C)C)cc4)cc3Cl)ccnc2cc1OCCCN1CCC(O)CC1` [Compound 309, 1-(3-{4-[4-(4-Tert-butyl-phenylamino)-2-chloro-phenoxy]-6-methoxy-quinolin-7-yloxy}-propyl)-piperidin-4-ol] the figure was 0.211 µM; with `COCCN1CCC(COc2cc3nccc(Oc4ccc(NC(=O)NCCC(C)(C)C)c(Cl)c4)c3cc2OC)CC1` [Compound 171, 1-(2-Chloro-4-{6-methoxy-7-[1-(2-methoxy-ethyl)-piperidin-4-ylmethoxy]-quinolin-4-yloxy}-phenyl)-3-(3,3-dimethyl-butyl)-urea], 0.0324 µM.
In the case of `COc1cc2c(Oc3ccc(Nc4ccc(C(C)(C)C)cc4)cc3F)ccnc2cc1OCCN(CCO)CCO` [Compound 336, 2-[(2-{4-[4-(4-Tert-butyl-phenylamino)-2-fluoro-phenoxy]-6-methoxy-quinolin-7-yloxy}-ethyl)-(2-hydroxy-ethyl)-amino]-ethanol], the IC50 amounted to 0.053 µM.
Regarding `COc1cc2nccc(Oc3ccc(Nc4ccc(C(C)(C)C)cc4)c(C)c3C)c2cc1OC` [Compound 16, (4-Tert-butylphenyl)-[4-(6,7-dimethoxyquinolin-4-yloxy)-2,3-dimethylphenyl]amine], the IC50 came to 0.242 µM.
In the case of `COc1cc2c(Oc3ccc(Nc4ccc(C(C)(C)C)cc4)cc3)ccnc2cc1OCCCN1CC(C)CC(C)C1` (stereo not shown) [Compound 233, (4-Tert-butyl-phenyl)-(4-{7-[3-(3,5-dimethyl-piperidin-1-yl)-propoxy]-6-methoxy-quinolin-4-yloxy}-phenyl)-amine], the IC50 stood at 0.371 µM.
With `COc1cc2nccc(Oc3ccc(NC(=O)NC4CC(C)CC(C)(C)C4)c(Cl)c3)c2cc1OC` (stereo not shown) [Compound 107, 1-[2-Chloro-4-(6,7-dimethoxy-quinolin-4-yloxy)-phenyl]-3-(3,3,5-trimethyl-cyclohexyl)-urea] the figure was under 0.01 µM; with `COc1cc2c(Oc3ccc(NC(=O)NCCC(C)(C)C)c(Cl)c3)ccnc2cc1OCCCCl` [Compound 161, 1-{2-Chloro-4-[7-(3-chloro-propoxy)-6-methoxy-quinolin-4-yloxy]-phenyl}-3-(3,3-dimethyl-butyl)-urea], 0.189 µM; with `COc1cc2c(Oc3ccc(NC(=O)NCCC(C)(C)C)c(Cl)c3)ccnc2cc1OCCN1C[C@@H](C)O[C@@H](C)C1` [Compound 116, 1-(2-Chloro-4-{7-[2-(2,6-dimethyl-morpholin-4-yl)-ethoxy]-6-methoxy-quinolin-4-yloxy}-phenyl)-3-(3,3-dimethyl-butyl)-urea], 0.0144 µM.
With `CCNCC(O)COc1cc2nccc(Oc3ccc(NC(=O)NCCC(C)(C)C)c(Cl)c3)c2cc1OC` (stereo not shown) [Compound 198, 1-{2-Chloro-4-[7-(3-ethylamino-2-hydroxy-propoxy)-6-methoxy-quinolin-4-yloxy]-phenyl}-3-(3,3-dimethyl-butyl)-urea], the IC50 is 0.0123 µM.
On to `COc1cc2c(Oc3ccc(Nc4ccc(C(C)(C)C)cc4)cc3)ccnc2cc1OCCC1CCCN1C` (stereo not shown) [Compound 27, (4-Tert-butylphenyl)-(4-{6-methoxy-7-[2-(1-methylpyrrolidin-2-yl)ethoxy]quinolin-4-yloxy}phenyl)amine], for which the IC50 is 2.52 µM.
For the compound `COc1cc2c(Oc3ccc(Nc4ccc(C(C)(C)C)cc4)cc3)ccnc2cc1OCCCN1CCN(C)CC1` [Compound 35, (4-Tert-butylphenyl)-(4-{6-methoxy-7-[3-(4-methylpiperazin-1-yl)propoxy]quinolin-4-yloxy}phenyl)amine], the IC50 was found to be 0.221 µM.
As to `COc1cc2c(Oc3ccc(NC(=O)NCCC(C)(C)C)c(Cl)c3)ccnc2cc1OCCCN1CCOCC1` [Compound 205, 1-{2-Chloro-4-[6-methoxy-7-(3-morpholin-4-yl-propoxy)-quinolin-4-yloxy]-phenyl}-3-(3,3-dimethyl-butyl)-urea], the IC50 came to 0.0255 µM.
With `COc1cc2c(Oc3ccc(NC(=O)NCCC(C)(C)C)cc3)ccnc2cc1OCCCN(C)CCO` [Compound 269, 1-(3,3-Dimethyl-butyl)-3-[4-(7-{3-[(2-hydroxy-ethyl)-methyl-amino]-propoxy}-6-methoxy-quinolin-4-yloxy)-phenyl]-urea], the IC50 came out at 0.0356 µM.
Turning to `COc1cc2c(Oc3ccc(NC(=O)NCCC(C)(C)C)c(Cl)c3)ccnc2cc1OCCCN1CCC(CCO)CC1` [Compound 267, 1-[2-Chloro-4-(7-{3-[4-(2-hydroxy-ethyl)-piperidin-1-yl]-propoxy}-6-methoxy-quinolin-4-yloxy)-phenyl]-3-(3,3-dimethyl-butyl)-urea], the IC50 came to 0.0267 µM.
On to `COc1cc2nccc(Oc3ccc(NC(=O)NCCC(C)(C)C)cc3)c2cc1OCCCN1CCC(CO)CC1` [Compound 323, 1-(3,3-Dimethyl-butyl)-3-(4-{6-[3-(4-hydroxymethyl-piperidin-1-yl)-propoxy]-7-methoxy-quinolin-4-yloxy}-phenyl)-urea], for which the IC50 was determined as 0.373 µM.
With `CCN(CCO)CCOc1cc2nccc(Oc3ccc(NC(=O)NCCC(C)(C)C)c(Cl)c3)c2cc1OC` [Compound 342, 1-[2-Chloro-4-(7-{2-[ethyl-(2-hydroxy-ethyl)-amino]-ethoxy}-6-methoxy-quinolin-4-yloxy)-phenyl]-3-(3,3-dimethyl-butyl)-urea] the figure was 0.0116 µM.
